Measurements taken from US10730848B2 (priority 2013, dated 2020).
Where two headings read alike, the source gives them in different places.

Tested on: anthrax lethal toxin (LT)
Assay: cells
Format: cell-based, murine
[1] = Mus musculus, RAW264.7, read-out: IC50 (In uM)
[2] = Mus musculus, RAW264.7, read-out: IC50, inhibition of LT-induced cell death

Row | Compound | protection of cells from LT (in words) | IC50 (Mus musculus, RAW264.7) | IC50 [1] | IC50 [2] | IC50 | fold less active than 1
1 | Cc1cccc(C)c1NC(=O)N/N=C/c1ccc(Br)cc1F [Compound 2, N^1-(4-BROMO-2-FLUOROBENZYLIDENE)-N^4-(2,6-DIMETHYLPHENYL)SEMICARBAZONE] | mid-nanomolar levels | 0.4 µM | 0.4 µM | 0.4 µM | – | –
2 | CCc1ccc(/C=N/NC(=O)Nc2c(C)cccc2C)cc1 [Compound 13l, N^1-(4-ETHYLBENZYLIDENE)-N^4-(2,6-DIMETHYLPHENYL)SEMICARBAZONE] | – | 3 µM | 3.02 µM | – | – | –
3 | Cc1ccc(NC(=O)N/N=C/c2ccc(Br)cc2)c(C)c1 [Compound 9a, N^1-(4-BROMOBENZYLIDENE)-N^4-(2,4-DIMETHYLPHENYL)SEMICARBAZONE] | not protective | > 25 µM | – | – | – | –
4 | Cc1cccc(C)c1NC(=O)N(C)/N=C/c1ccc(Br)cc1 [Compound 16, N^1-2-(4-BROMOBENZYLIDENE)-N^4-(2,6-DIMETHYLPHENYL)1-METHYLHYDRAZINECARBOXAMIDE] | – | 1.96 µM | 1.96 µM | 2 µM | – | –
5 | COc1cc(OC)c(/C=N/NC(=O)Nc2c(C)cccc2C)c(OC)c1 [Compound 13h, N^1-(2,4,6-TRIMETHOXYBENZYLIDENE)-N^4-(2,6-DIMETHYLPHENYL)SEMICARBAZONE] | – | > 25 µM | > 25 µM | – | – | –
6 | Cc1cccc(C)c1NC(=O)N/N=C/c1cccs1 [Compound 13w, N^1-(THIOPHENE-2-YLMETHYLENE)-N^4-(2,6-DIMETHYLPHENYL)SEMICARBAZONE] | – | > 25 µM | – | – | > 25 µM | –
7 | Cc1cccc(C)c1/N=C(\N)N/N=C/c1ccc(Br)cc1 [Compound 22, 2-(4-BROMOBENZYLIDENE)-N′-(2,6-DIMETHYLPHENYL)HYDRAZINECARBOXIMIDAMIDE] | – | – | – | 13.8 µM | – | –
8 | COc1ccc(/C=N/NC(=O)Nc2c(C)cccc2C)cc1 [Compound 13n, N^1-(4-METHOXYBENZYLIDENE)-N^4-(2,6-DIMETHYLPHENYL)SEMICARBAZONE] | – | > 12.5 µM | > 12.5 µM | – | – | –
9 | Cc1cccc(C)c1NC(=O)N/N=C/c1ccc(Cl)cc1 [Compound 13a, N^1-(4-CHLOROBENZYLIDENE)-N^4-(2,6-DIMETHYLPHENYL)SEMICARBAZONE] | – | 1.65 µM | 1.65 µM | – | 1.7 ± 0.2 µM | –
10 | Cc1cccc(C)c1NC(=O)N/N=C/c1ccc(C(C)C)cc1 [Compound 13m, N^1-(4-I-PROPYLBENZYLIDENE)-N^4-(2,6-DIMETHYLPHENYL)SEMICARBAZONE] | – | 6.5 µM | 6.48 µM | – | – | –
11 | Cc1cccc(C)c1NC(=O)N/N=C/c1ccccc1F [Compound 13c, N^1-(2-FLUOROBENZYLIDENE)-N^4-(2,6-DIMETHYLPHENYL)SEMICARBAZONE] | – | 8.2 µM | 8.23 µM | – | – | –
12 | COc1cccc(/C=N/NC(=O)Nc2c(C)cccc2C)c1OC [Compound 13g, N^1-(2,3-DIMETHOXYBENZYLIDENE)-N^4-(2,6-DIMETHYLPHENYL)SEMICARBAZONE] | – | > 25 µM | > 25 µM | – | – | –
13 | CC(C)(C)NC(=O)N/N=C/c1ccc(Br)cc1 [Compound 10, N^1-(4-BROMOBENZYLIDENE)-N^4-(TERT-BUTYL)SEMICARBAZONE] | not protective | > 25 µM | – | – | – | –
14 | Cc1cccc(C)c1NC(=O)N/N=C/c1ccc(NS(C)(=O)=O)cc1 [Compound 13p, N^1-(4-(N-(4-FORMYLPHENYL)METHANESULFONAMIDE)BENZYLIDENE-N^4-(2,6-DIMETHYLPHENYL)SEMICARBAZONE] | – | > 25 µM | > 25 µM | – | – | –
15 | Cc1cccc(C)c1NC(=O)N/N=C/c1cccc(C(F)(F)F)c1Cl [Compound 13b, N^1-(2-CHLORO-3-TRIFLUOROMETHYLBENZYLIDENE)-N^4-(2,6-DIMETHYLPHENYL)SEMICARBAZONE] | – | > 25 µM | > 25 µM | – | – | –
16 | C#Cc1ccc(/C=N/NC(=O)Nc2c(C)cccc2C)cc1 [Compound 13o, N^1-(4-ETHYNYLBENZYLIDENE)-N^4-(2,6-DIMETHYLPHENYL)SEMICARBAZONE] | – | 1.7 µM | 1.69 µM | – | – | –
17 | Cc1cccc(C)c1NC(=O)N/N=C/c1ccc(Br)c(Cl)c1 [Compound 13ab, N^1-(4-BROMO-3-CHLOROBENZYLIDENE)-N^4-(2,6-DIMETHYLPHENYL)SEMICARBAZONE] | – | 3.4 µM | – | – | – | –
18 | Cc1ccc(/C=N/NC(=O)Nc2c(C)cccc2C)cc1 [Compound 13k, N^1-(4-METHYLBENZYLIDENE)-N^4-(2,6-DIMETHYLPHENYL)SEMICARBAZONE] | – | 2.9 µM | 2.9 µM | – | – | –
19 | Cc1cccc(C)c1NC(=O)N/N=C/c1ccc(F)cc1F [Compound 13f, N^1-(2,4-DIFLUOROBENZYLIDENE)-N^4-(2,6-DIMETHYLPHENYL)SEMICARBAZONE] | – | 2.1 µM | 2.14 µM | 2.1 µM | – | –
20 | Cc1cccc(C)c1NC(=O)N/N=C/c1ccc(C(F)(F)F)cc1 [Compound 13r, N^1-(4-TRIFLUOROMETHYLBENZYLIDENE)-N^4-(2,6-DIMETHYLPHENYL)SEMICARBAZONE] | – | 2.6 ± 0.5 µM | 2.59 µM | – | – | –
21 | Cc1cccc(C)c1NC(=O)NN=Cc1ccccc1 [Compound 12, benzaldehyde N-(2,6-dimethylphenyl)semicarbazone, reference compound] | showed almost no activity against LT | > 25 µM | – | – | – | –
22 | Cc1cccc(C)c1NC(=O)N/N=C/c1ccco1 [Compound 13u, N^1-(FURAN-2-YLMETHYLENE)-N^4-(2,6-DIMETHYLPHENYL)SEMICARBAZONE] | – | > 25 µM | – | – | – | –
23 | Cc1cccc(C)c1NC(=O)N/N=C/c1ccc(F)cc1 [Compound 13e, N^1-(4-FLUOROBENZYLIDENE)-N^4-(2,6-DIMETHYLPHENYL)SEMICARBAZONE] | – | 7 µM | 7 µM | 7 µM | – | –
24 | Cc1cccc(C)c1NC(=O)N/N=C/c1ccc(I)cc1 [Compound 13q, N^1-(4-IODOBENZYLIDENE)-N^4-(2,6-DIMETHYLPHENYL)SEMICARBAZONE] | – | 1.77 µM | 1.77 µM | – | 1.8 ± 0.3 µM | –
25 | Cc1cc(C)c(NC(=O)N/N=C/c2ccc(Br)cc2)c(C)c1 [Compound 9b, N^1-(4-BROMOBENZYLIDENE)-N^4-(2,4,6-DIMETHYLPHENYL)SEMICARBAZONE] | – | 12.6 µM | 12.6 µM | – | – | approximately 10 fold
26 | Cc1cccc(C)c1NC(=O)N/N=C/c1ccc(Br)s1 [Compound 13x, N^1-(5-BROMOTHIOPHENE-2-YLMETHYLENE)-N^4-(2,6-DIMETHYLPHENYL)SEMICARBAZONE] | – | 1.67 µM | – | 1.7 µM | – | –
27 | Cc1cccc(C)c1NC(=O)N/N=C/c1ccncc1 [Compound 13t, N^1-(PYRIDIN-4-YLMETHYLENE)-N^4-(2,6-DIMETHYLPHENYL)SEMICARBAZONE] | – | > 25 µM | – | – | – | –
28 | Cc1cccc(C)c1NC(=O)N/N=C/c1ccc(Br)c(F)c1 [Compound 13aa, N^1-(4-BROMO-3-FLUOROBENZYLIDENE)-N^4-(2,6-DIMETHYLPHENYL)SEMICARBAZONE] | – | 1.5 µM | – | – | – | –
29 | Cc1cccc(C)c1NC(=O)N/N=C/c1c(F)cc(Br)cc1F [Compound 13y, N^1-(4-BROMO-2,6-DIFLUOROBENZYLIDENE)-N^4-(2,6-DIMETHYLPHENYL)SEMICARBAZONE] | – | 3.9 µM | 3.95 µM | – | 4 ± 0.8 µM | –
30 | Cc1cccc(C)c1NC(=O)N/N=C/c1ccc(C#N)cc1 [Compound 13s, N^1-(4-CYANOMETHYLBENZYLIDENE)-N^4-(2,6-DIMETHYLPHENYL)SEMICARBAZONE] | – | 2.45 µM | 2.45 µM | – | 2.5 ± 0.3 µM | –
